From paper PMC3764137, “Sulphamoylated 2-Methoxyestradiol Analogues Induce Apoptosis in Adenocarcinoma Cell Lines” (PLoS ONE, 2013)
Entries after “also recorded” stand apart in the source; their conditions may differ.

Experiments:
HeLa cells [1] = assay: Cell morphology by transmission electron microscopy; assay type: cell-based, human; conditions: 24 h
Experimental: The in vitro influence of ESE-15-one, EMBS and ESE-16 on cell morphology was determined after exposure for 24 h using transmission electron microscopy (TEM). […] After each fixation step the samples were rinsed 3 times in 0.0075 M sodium phosphate buffer (pH 7.4). Samples were dehydrated using increasing concentrations of ethanol (30%, 50%, 70%, 90%, and 3×100%) and embedded in Quetol resin, sectioned with a microtome and placed on copper discs. Sections were contrasted with 4% aqueous uranyl acetate and Reynolds' lead citrate and viewed with a JOEL JEM 2100F transmission electron microscope (Electron Microscopy Unit, University of Pretoria, South Africa).

tubulin = assay: Tubulin polymerization assay (DAPI fluorescence); assay type: biochemical; conditions: for EC50: in vitro tubulin polymerization, read-out: tubulin polymerization inhibition EC50
Experimental: Briefly, microtubule assembly was conducted in a half area 96 well black plate using a microplate reader FLUOstar OPTIMA (BMG Labtechnologies). […] Following 10 min incubation, assembly was initiated by injection of GTP and MgCl2 to a final concentration of 1 mM and 5 mM respectively, yielding a reaction volume of 100 µl. The excitation and emission wavelengths were set at 360 and 450 nm, respectively, and the fluorescence of microtubule-bound DAPI was monitored as a function of time at 37°C. Fluorescence signal at time 0 for each well was subtracted from each of the subsequent fluorescence readings, [22].

MCF-7 cell line = conditions: cited from earlier work
MDA-MB-231 = conditions: 500 nM, 72 hours of exposure; ref 13 (Foster et al. 2008); cited from earlier work
[2] = test system: human umbilical vein endothelial cells (HUVECs); conditions: 500 nM, 72 hours of exposure; ref 13 (Foster et al. 2008); cited from earlier work
HeLa cells [3] = assay: Cell number determination by crystal violet staining; assay type: cell-based, human; conditions: for cell growth: 24 h
Experimental: Crystal violet is a method used to determine the number of cells by staining the deoxyribonucleic acid (DNA). Gillies et al. (1986) used crystal violet to quantify cell number in monolayer cultures as a function of the absorbance of the dye taken up by the cells. A dose-dependent study was chosen with a concentration range of 0.1–25 μM since it was previously observed in our laboratory that this concentration series exerts antiproliferative activity in HeLa cells. Exponentially growing HeLa cells were seeded in 96 well tissue culture plates at a cell density of 5,000 cells per well. Cells were incubated at 37°C in a humidified atmosphere containing 5% CO2 for 24 h to allow for attachment. To establish the starting number of cells, a baseline determination was conducted before exposure. Subsequently, the medium was discarded and cells were exposed to the sulphamoylated 2ME2 analogues at a concentration series of 0.1–25 μM for the 24 h at 37°C. Vehicle-treated controls were also included. Cells were fixed with 100 µl of 1% gluteraldehyde (incubation for 15 min at room temperature). Gluteraldehyde was discarded and cells were stained using 100 µl 0.1% crystal violet (incubated at room temperature for 30 min). Excedent crystal violet was discarded and the 96 well plate was submersed under running water. Cells were solubilized using 200 µl 0.2% Triton X-100 and incubated at room temperature for 30 min. Solution (100 µl) was transferred to a new microtitre plate. Afterwards, the absorbance was determined at 570 nm using an ELx800 Universal Microplate Reader available from Bio-Tek Instruments Inc. (Vermont, United States of America).

HeLa cells [4] = assay: Mitochondrial membrane potential assay (Mitocapture, flow cytometry); assay type: cell-based, human; conditions: 0.5 μM analogues (2-methoxyestradiol-bis-sulphamate 0.55 μM), 24 h
Experimental: Cells (500,000) were seeded with an overnight attachment policy. After 24 h of exposure to 0.5 μM of the sulphamoylated 2ME2 analogues, cells were detached using trypsin and centrifuged at 13,000×g.

HeLa cells [5] = assay: Cytochrome c release (FlowCellect, flow cytometry); assay type: cell-based, human; conditions: 0.5 μM analogues (2-methoxyestradiol-bis-sulphamate 0.55 μM), 24 h
Experimental: (§1) This kit utilizes a unique set of buffers that selectively permeabilizes the […] without affecting the mitochondrial membrane. […] Cells (500,000) were seeded with an overnight attachment policy. After 24 h of exposure to 0.5 μM of the sulphamoylated 2ME2 analogues, cells were detached using trypsin and centrifuged at 13,000×g. Cells (500,000) were resuspended in PBS, centrifuged and resuspended in permeabilization buffer (according to supplier's instructions) for 10 min on ice. Subsequently cells were centrifuged, resuspended in 100 µl fixation buffer (according to supplier's instructions) for 20 min at room temperature, centrifuged again and resuspended in blocking buffer (150 µl). After another centrifugation step, cells were centrifuged and resuspended in blocking buffer (twice). Anti-cytochrome c-FITC (10 µl) was added to each sample and samples were incubated for 30 min at room temperature. Cells were centrifuged and blocking buffer (100 µl) was added. After centrifugation, blocking buffer (200 µl) was added to the samples for analysis via flow cytometry (FC500 System flow cytometer, Beckman Coulter South Africa (Pty) Ltd). Cells presenting with cytochrome c release were detected in the fluorescein isothiocyanate (FITC) channel (FL1) showing diffused green fluorescence. Data from at least 10 000 cells were analyzed by means of Cyflogic version 1.2.1 software (Pertu Therho, Turko, Finland).

MDA-MB-231 cells [6] = assay: Cytochrome c release (FlowCellect, flow cytometry); assay type: cell-based, human; conditions: MDA-MB-231, 0.5 μM analogues (2-methoxyestradiol-bis-sulphamate 0.55 μM), 24 h
Experimental: as §1

caspase-8 = assay: FLICE/caspase 8 colorimetric assay; assay type: cell-based, human; conditions: 0.5 μM, 24 h
Experimental: (§2) Possible activation of caspase 3, -6 and -8 was investigated by means of caspase 3, caspase 6 and FLICE/caspase 8 colorimetric kits, respectively. Cells (1,000,000) were seeded with an overnight attachment policy. After 24 h of exposure to 0.5 μM of the sulphamoylated 2ME2 analogues, cells were detached with trypsin and centrifuged at 13,000× g. Cells (500,000) were resuspended in 50 µl of chilled cell lysis buffer and incubated on ice for 10 min. Cells were centrifuged at 10,000×g for a min. Supernatant was transferred to a fresh tube and put on ice. After determination of the protein concentration using the bicinchoninic acid (BCA) protein assay (Thermo Fisher Scientific, Johannesburg, South Africa), 100 µg protein/50 µl cell lysis buffer was mixed with 50 µl 2X reaction buffer (containing 10 mM Dithiothreitol (DTT)). Ac-Asp-Glu-Val-Asp-p-nitroanilide (Ac-DEVD-pNA) (5 µl of 4 mM) (caspase-3-specific substrate), or 5 µl 4 mM […] (Ac-VEID-pNA) (caspase-6-specific substrate), or 5 µl 4 mM Ac-Ile-Glu-Thr-Asp-p-nitroanilide (Ac-IETD-pNA) (caspase-8-specific substrate) was added and the mixture was incubated at 37°C for 120 min (200 µM final concentration). Absorbance was determined at 405 nm on the ELx800 Universal Microplate Reader available from Bio-Tek Instruments Inc. (Vermont, United States of America).

caspase-6 = assay: Caspase 6 colorimetric assay; assay type: cell-based, human; conditions: 0.5 μM, 24 h
Experimental: as §2

HeLa cells [7] = assay: Double immunofluorescence of intracellular microtubules; assay type: cell-based, human; conditions: 24 h, 0.189 μM ESE-15-one, 0.5 μM EMBS and ESE-16, 1μM colchicine
Experimental: (§3) In order to visualize the effect of the 2ME2 analogues on microtubule dynamics and integrity, a double immunofluorescence technique using antibodies against tyrosinated and detyrsosinated tubulin was conducted as described by Paturle-Lafanechère et al. (2004). HeLa and MDA-MB-231 cells were seeded onto sterilized coverslips and allowed to grow to 80% confluency for 48 h. Cells were exposed to 0.189 μM ESE-15-one, 0.5 μM EMBS and ESE-16 along with DMSO (negative control) and 1μM colchicine as a positive control for 24 h. Cells were permeablised permeabilized with warmed OPT buffer (80 mmol/L Pipes, […], […], 0.5% Triton X-100 and glycerol 10%, pH 6.8), followed by fixation in ice-cold methanol at −20°C and were subsequently incubated with the primary antibody cocktail (PBS containing anti-detyrosinated tubulin (L4), anti-[…], BSA 0.3%, tween 0.1%). After incubation, cells were incubated with the secondary antibodies, namely Alexa 488 (Invitrogen) and Cy3 (Jackson ImmunoResearch laboratories). Samples were visualized using a Zeiss AxioImager Z1 microscope controlled by Axiovision softwared (Carl Zeiss) (X63 oil objective). Images were captured using an Ocra R2 N/B camera (Hamamatsu) and assessed for microtubule integrity and ratio of tyrosinated to detyrosinated tubulin.

MDA-MB-231 cells [8] = assay: as above; assay type: cell-based, human; conditions: MDA-MB-231, 24 h; 0.189 μM ESE-15-one, 0.5 μM EMBS and ESE-16, 1μM colchicine
Experimental: as §3

caspase 3 = conditions: HeLa cells; another study conducted in our laboratory (data not shown); cited from earlier work

| Structure (SMILES) | apoptotic bodies (TEM) (HeLa cells [1]) | vacuoles (TEM) (HeLa cells [1]) | EC50 (tubulin) [µM] | concentration with antiproliferative activity (MCF-7 cell line) [µM] | inner mitochondrial membrane potential (MDA-MB-231) | inner mitochondrial membrane potential [2] | cell growth (HeLa cells [3]; 0.1 µM) [%] | cell growth (HeLa cells [3]; 0.5 µM, compared to vehicle-treated cells) [%] | concentration that significantly inhibits HeLa proliferation (HeLa cells [3]; 24 h of exposure) [µM] | cell shrinkage (TEM) (HeLa cells [1]; compared to vehicle-treated cells) | cells with reduced mitochondrial potential (HeLa cells [4]) [%] | Cytochrome c in cytoplasm (cells with cytochrome c release) (HeLa cells [5]) [%] | Cytochrome c in cytoplasm (cells with cytochrome c release) (MDA-MB-231 cells [6]) [%] | caspase-8 activity increase compared to vehicle-treated cells (caspase-8) [fold] | caspase-6 activity ratio compared to vehicle-treated cells (caspase-6) | effect on tubulin polymerization (tubulin; in vitro) | microtubule integrity (HeLa cells [7]) | microtubule integrity (MDA-MB-231 cells [8]) | caspase 3 activity increase (caspase 3) [fold] |
| --- | --- | --- | --- | --- | --- | --- | --- | --- | --- | --- | --- | --- | --- | --- | --- | --- | --- | --- | --- |
| COc1cc2c(cc1OS(N)(=O)=O)CC[C@@H]1[C@@H]2CC[C@]2(C)[C@@H](OS(N)(=O)=O)CC[C@@H]12 [2-methoxyestradiol-bis-sulphamate, reference compound] | Apoptotic bodies were observed | vacuoles | 11 | 0.1 to 1 | depolarized | depolarized |  |  |  |  |  |  |  |  |  |  |  |  |  |
| CCc1cc2c(cc1OS(N)(=O)=O)CC[C@@H]1[C@@H]2CC[C@]2(C)C=CC[C@@H]12 [ESE-16, 2-ethyl-3-O-sulphamoyl-estra-1,3,5 (10) 16-tetraene] | Apoptotic bodies were observed | vacuoles | 5 |  |  |  | 45.59 | 45.30 | 0.5 | shrunken | 68.43 | 10 | 30 | 1.7 | 3.2 | more pronounced effect on tubulin polymerization; also recorded: pronounced effect comparable with that of colchicine | microtubule abrogation; also recorded: complete microtubule depolymerisation | detyrosinated microtubule fragments | 8 |
| COc1cc2c(c(OC)c1OC)-c1ccc(OC)c(=O)cc1[C@@H](NC(C)=O)CC2 [colchicine, reference compound] |  |  |  |  |  |  |  |  |  |  |  |  |  |  |  |  | only fragments of detyrosinated microtubules remaining; also recorded: complete microtubule depolymerisation | complete microtubule depolymerisation |  |
